Assay results taken from patent US20040234480A1, “Use of oligomeric proanthrocyanidins” (priority 2001, published 2004).

Key:
[1] = Method A: diphenylpicrylhydrazyl free radical, optical density at 513 nm; conditions: DPPH radical
Text: Method A In a first method, use was made of diphenylpicrylhydrazyl (DPPH^o), a relatively stable free radical which produces a purple-colored solution. The parameter determined was the optical density (DO) at 513 nm. The results are summarized in Table 1; in each case the EC50 values are given in % (w/v).

Xanthin oxidase = Xanthin oxidase (Homo sapiens, UniProt P47989); assay: Method D: Xanthin oxidase, superoxide anion by NBT reduction, optical density at 490 nm; format: biochemical
Sequence of Xanthin oxidase (P47989 whole entry): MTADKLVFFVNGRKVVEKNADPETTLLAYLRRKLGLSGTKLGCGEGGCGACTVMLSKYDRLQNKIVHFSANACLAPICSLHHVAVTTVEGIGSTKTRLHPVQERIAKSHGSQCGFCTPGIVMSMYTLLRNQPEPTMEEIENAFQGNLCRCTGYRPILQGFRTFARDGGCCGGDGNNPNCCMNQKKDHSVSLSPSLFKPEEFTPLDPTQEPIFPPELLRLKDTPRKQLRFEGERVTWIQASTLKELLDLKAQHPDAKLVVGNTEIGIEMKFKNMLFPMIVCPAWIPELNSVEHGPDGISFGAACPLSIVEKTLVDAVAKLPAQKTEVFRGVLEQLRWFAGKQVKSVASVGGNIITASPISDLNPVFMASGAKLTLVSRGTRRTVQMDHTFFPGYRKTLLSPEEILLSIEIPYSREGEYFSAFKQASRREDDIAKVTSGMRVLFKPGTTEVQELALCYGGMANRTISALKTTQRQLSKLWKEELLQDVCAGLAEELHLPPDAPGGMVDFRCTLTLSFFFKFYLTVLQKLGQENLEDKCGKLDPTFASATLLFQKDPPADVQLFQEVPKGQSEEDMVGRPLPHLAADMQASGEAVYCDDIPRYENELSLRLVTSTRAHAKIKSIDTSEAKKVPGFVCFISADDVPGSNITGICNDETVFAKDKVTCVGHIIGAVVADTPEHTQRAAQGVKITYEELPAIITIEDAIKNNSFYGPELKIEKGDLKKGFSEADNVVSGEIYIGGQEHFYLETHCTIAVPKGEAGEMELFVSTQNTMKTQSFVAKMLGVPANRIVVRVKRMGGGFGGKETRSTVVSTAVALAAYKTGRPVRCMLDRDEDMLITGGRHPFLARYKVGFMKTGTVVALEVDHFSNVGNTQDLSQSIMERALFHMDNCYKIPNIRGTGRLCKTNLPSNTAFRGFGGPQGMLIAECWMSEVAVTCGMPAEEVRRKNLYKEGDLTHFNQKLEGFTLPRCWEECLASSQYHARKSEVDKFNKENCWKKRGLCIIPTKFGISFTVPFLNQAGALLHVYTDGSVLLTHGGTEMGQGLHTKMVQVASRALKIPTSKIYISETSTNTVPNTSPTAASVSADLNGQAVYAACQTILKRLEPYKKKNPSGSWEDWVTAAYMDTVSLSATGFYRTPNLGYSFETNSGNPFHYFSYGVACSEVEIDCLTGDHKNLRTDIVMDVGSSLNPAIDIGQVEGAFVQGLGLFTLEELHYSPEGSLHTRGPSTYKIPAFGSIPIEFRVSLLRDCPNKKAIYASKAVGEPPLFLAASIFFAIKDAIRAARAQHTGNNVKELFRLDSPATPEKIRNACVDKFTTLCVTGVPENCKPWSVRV
Text: Method D Xanthin oxidase is an enzyme which is released as a result of oxidative stress and catabolizes the degradation of the purine bases adenine and guanine into […] and superoxide anions. The latter dismutate spontaneously or in the presence of superoxide dismutase into hydrogen peroxide and oxygen.
The amount of superoxide anion can be determined by NBT reduction via the optical density at 490 nm. It was investigated whether fewer superoxide anions are generated or more anions are destroyed in the presence of the test substances.
(§1) The results are summarized in Table 1; in each case the EC50 values are given in % (w/v).

[2] = Method C: deoxyribose oxidation in the absence of EDTA (inactive iron complexes)
Text: as §1

[3] = Method B: hydroxyl radicals from hydrogen peroxide with iron(II) ions and EDTA, deoxyribose oxidation
Text: Method B In the presence of iron(II)ions and EDTA, hydroxyl radicals were liberated from hydrogen peroxide and used for the oxidation of deoxyribose. The oxidation product forms a pink-colored compound with thiobarbituric acid. Its concentration corresponds to the optical density at 532 nm. It was investigated whether less deoxyribose is oxidized, i.e. fewer free radicals are liberated, in the presence of the test products. The results are summarized in Table 1; in each case the EC50 values are given in % (w/v).

EC50, test method D (Xanthin oxidase) | Compound | EC50, test method A [1] | EC50 (Xanthin oxidase; read-out: EC50, test method D (converted)) | EC50, test method C [2] | EC50, test method B [3]
 | O=C1O[C@H]([C@@H](O)CO)C(O)=C1O [Ascorbic acid] | 0.0013 % (w/v) | 33.6 mM | 0.9% (w/v) | 0.2607% (w/v)
no | Tocopherol | 0.0067 % (w/v) |  |  | 
